What was measured:
[1] = system: SARS-CoV-2 variant BA.1 (omicron); type: cell-based
[2] = system: SARS-CoV-2 variant B.1.617.2 (delta); type: cell-based

CSc1ccc(-n2cnc3ccc(-c4nnc(CCc5cccc(C#N)c5)o4)cc32)cc1 [P-0717632]
effect on viral titres, BA.1 [1]: reduced intracellular viral titres
effect on viral titres, B.1.617.2 [2]: reduced intracellular viral titres

From PMC9742639, “Inhibition of glycogen synthase kinase-3-beta (GSK3β) blocks nucleocapsid phosphorylation and SARS-CoV-2 replication” (Molecular Biomedicine, 2022)
